Data set [1] is described as follows: Cytotoxicity assay (CO-ADD). In kind it is cell-based. Particulars: human embryonic kidney cells.
Another data set deals with human red blood cells. As to the kind of experiment: Haemolysis assay (CO-ADD). In kind it is cell-based.
For data set [2], the system named is MRSA (G+) strain ATCC 43300. As to the kind of experiment: Antimicrobial growth inhibition (CO-ADD), MRSA. The format is cell-based, Staphylococcus aureus. Particulars: for % inhibition MRSA: 32 µg/mL, duplicate (n = 2) values; for inhibition at 32 µg/mL / MIC: Staphylococcus aureus. The protocol:
(§1) Compounds 1−3 and 5−12 were assayed against a selection of medically important pathogenic microorganisms (MRSA, E. coli, K. pneumoniae, A. baumanii, P. aeruginosa, C. albicans, C. neoformans), Table 4. […] To the best of our knowledge this compound had not been tested against any drug resistant strain of Gram-positive bacterium until this study.
(§2) The antimicrobial activity testing was performed by the Community for Antimicrobial Drug Discovery (CO-ADD). Compounds were assayed against a range of both Gram negative and Gram positive bacteria (see Supplementary Materials S3) including methicillin-resistant Staphylococcus aureus (MRSA) (G+), Escherichia coli (G-), Klebsiella pneumoniae (G-), Acinetobacter baumannii (G-), Pseudomonas aeruginosa (G-) together with two species of fungus (Candida albicans and Cryptococcus neoformans).
(§3) S3. Antimicrobial activity testing methodology
(§4) The compounds submitted to CO-ADD were evaluated in duplicate (n = 2) against seven microorganisms (five bacteria and two fungi) at a concentration of 32 µg/mL in a 384-well, non-binding surface plate (NBS) for each bacterial/fungal strain, keeping the final DMSO concentration to a maximum of 1% DMSO. All bacteria were cultured in cation-adjusted Mueller-Hinton broth (CAMHB) at 37 °C overnight. A sample of each culture was then diluted 40-fold in fresh broth and incubated at 37 °C for 1.5-3 h. The resultant mid-log phase cultures were diluted (CFU/mL measured by OD600), then added to each well of the compound containing plates, giving a cell density of 5x10^5 CFU/mL and a total volume of 50 µL. All the plates were covered and incubated at 37 °C for 18 h without shaking. […] Inhibition of bacterial growth was determined measuring absorbance at 600 nm (OD600) using a Tecan M1000 Pro mon-ochromator plate reader. […]
(§5) 2 h. The absorbance was measured using a Biotek Synergy HTX plate reader. The percentage of growth inhibition was calculated for each well, using negative control (medium only) and positive control (bacteria without inhibitors) on the same plate as the references. The significance of inhibition values was determined by modified Z-scores, calculated using the median and MAD of the samples (no controls) on the same plate. Samples with inhibition value above 80% and Z-score above 2.5 for either replicate (n = 2 on different plates) were classed as actives.
(§6) Colistin and vancomycin were used as positive bacterial inhibitor standards for Gram-negative and Gram-positive bac-teria, respectively. Fluconazole was used as a positive fungal inhibitor standard for C. albicans and C. neoformans. The antibiotics were provided in four concentrations, with two above and two below its MIC value, and plated into the first eight wells of column 23 of the 384-well NBS plates. The quality control (QC) of the assays was determined by the antimicrobial controls and the Z’-factor (using positive and negative controls). Each plate was deemed to fulfil the qual- […]
(§7) full growth inhibition at their highest concentration, and no growth inhibition at their lowest concentration. The seven […]
(§8) test microorganisms were Staphylococcus aureus MRSA (ATCC 43300), Escherichia coli (ATCC 25922), Klebsiella pneu-moniae (ATCC 700603), Acinetobacter baumanii (ATCC19606), Pseudomonas aeruginosa (ATCC 27853), Candida albicans (ATCC 90028) and Cryptococcus neoformans var. grubii (H99; ATCC 208821).
(§9) S4. Anthelmintic activity testing methodology
(§10) Dose-response evaluations were carried out to estimate the half-maximal inhibitory concentrations (IC50 values) for compounds against Haemonchus contortus (Haecon-5 strain) exsheathed third-stage larvae (xL3s). H. contortus were maintained in experimental sheep and procured in accordance with the institutional animal ethics guidelines and the regulations of Australia (permit no. 1714374; University of Melbourne). Immediately prior to use, third-stage larvae (L3s) were exsheathed and sterilised by incubation in 0.15% (v/v) bleach at 38 °C for 20 min, followed by washes in […]

Data set [3] relates to E. Coli (G-) strain ATCC 25922. The data set is described as follows: Antimicrobial growth inhibition (CO-ADD), E. coli. Particulars: for % inhibition E. coli: 32 µg/mL, duplicate (n = 2) values; for inhibition at 32 µg/mL / MIC: Escherichia coli. In kind it is cell-based, Escherichia coli. The protocol:
as §1, §2, §3, §4, §5, §6, §7, §8, §9, §10

Data set [4] concerns K. pneumoniae (G-) strain ATCC 700603. The data set is described as follows: Antimicrobial growth inhibition (CO-ADD), K. pneumoniae. The format is cell-based, Klebsiella pneumoniae. Particulars: for % inhibition K. pneumoniae: 32 µg/mL, duplicate (n = 2) values; for inhibition at 32 µg/mL / MIC: Klebsiella pneumoniae; for inhibition at 32 µg/mL: ATCC700603, read-out: % inhibition K. pneumoniae, 32 µg/mL, duplicate (n = 2) values. The protocol:
as §1, §2, §3, §4, §5, §6, §7, §8, §9, §10

The test system of data set [5] is A. baumannii (G-) strain ATCC 19606. The data set is described as follows: Antimicrobial growth inhibition (CO-ADD), A. baumannii. The format is cell-based, Acinetobacter baumannii. To be noted: for % inhibition A. baumannii: 32 µg/mL, duplicate (n = 2) values. The protocol:
as §1, §2, §3, §4, §5, §6, §7, §8, §9, §10

Data set [6] relates to P. auruginosa (G-) strain ATCC 27853. The data set is described as follows: Antimicrobial growth inhibition (CO-ADD), P. aeruginosa. The format is cell-based, Pseudomonas aeruginosa. Particulars: for % inhibition P. aeruginosa: 32 µg/mL, duplicate (n = 2) values. The protocol: as §1, §2, §3, §4, §5, §6, §7, §8, §9, §10
Data set [7] deals with C. neoformans var. grubii strain ATCC 208821. As to the kind of experiment: Antimicrobial growth inhibition (CO-ADD), C. neoformans. In kind it is cell-based, Cryptococcus neoformans. Particulars: for % inhibition C. neoformans: 32 µg/mL, duplicate (n = 2) values; for inhibition at 32 µg/mL: Cryptococcus neoformans, ATCC208821, read-out: % inhibition C. neoformans, 32 µg/mL, duplicate (n = 2) values. The protocol:
as §1, §2, §3
The compounds submitted to CO-ADD were evaluated in duplicate (n = 2) against seven microorganisms (five bacteria and two fungi) at a concentration of 32 µg/mL in a 384-well, non-binding surface plate (NBS) for each bacterial/fungal strain, keeping the final DMSO concentration to a maximum of 1% DMSO. All bacteria were cultured in cation-adjusted […]
Fungal strains were cultured for 3 days on Yeast Extract-Peptone Dextrose (YPD) agar at 30 °C. A yeast suspension of 1 x 10^6 to 5 x 10^6 CFU/mL (as determined by OD530) was prepared from five colonies. The suspension was subsequently diluted and added to each well of the compound-containing plates giving a final cell density of fungi suspension of 2.5 x 10^3 CFU/mL and a total volume of 50 µL. All plates were covered and incubated at 35 °C for 24 h without shaking. […]
as §5, with “Growth inhibition of C. albicans was determined measuring absorbance at 530 nm (OD530), while the growth inhibition of C. neoformans was determined measuring the difference in absorbance between 600 and 570 nm (OD600-570), after the addition of resazurin (0.001% final concentration) and incubation at 35 °C for an additional 2 h.” for “2 h.”
as §6, §7, §8, §9
Dose-response evaluations were carried out to estimate the half-maximal inhibitory concentrations (IC50 values) for compounds against Haemonchus contortus (Haecon-5 strain) exsheathed third-stage larvae (xL3s). H. contortus were maintained in experimental sheep and procured in accordance with the institutional animal ethics guidelines and the […]

Data set [8] has the same test system. The data set is described as above. To be noted: Cryptococcus neoformans. The format is cell-based.
Where [9] appears, read: read-out: % inhibition MRSA, 32 µg/mL, duplicate (n = 2) values.
The mark [10] stands for this setting: ATCC 43300, MIC = concentration at which growth inhibited by ≥80%, range 0.25−32 µg/mL, read-out: MIC MRSA.
The mark [11] stands for this setting: ATCC25922, read-out: % inhibition E. coli, 32 µg/mL, duplicate (n = 2) values.
Where [12] appears, read: ATCC25922, ATCC 25922, MIC = concentration at which growth inhibited by ≥80%, read-out: MIC E. coli.
[13] abbreviates: ATCC700603, ATCC 700603, read-out: MIC K. pneumoniae.
Where [14] appears, read: Acinetobacter baumannii, ATCC19606, ATCC 19606, read-out: MIC A. baumannii.
Setting [15] is: Pseudomonas aeruginosa, ATCC27853, ATCC 27853, read-out: MIC P. aeruginosa.
The mark [16] stands for this setting: ATCC208821, var. grubii ATCC 208821, read-out: MIC C. neoformans.

Molecules are shown by their SMILES. Where “and” joins values, the source holds several entries; their conditions need not be identical. Equal entries are not always repeated. Where two headings read alike, the source gives them in different places. A value given as a limit tells only on which side of the number the result lay.

With `COC1=C(Br)[C@H](O)[C@@]2(C=C1Br)CC(C(=O)NCCCOc1c(Br)cc(CCN)cc1Br)=NO2` [Compound 11, araplysillin I], the CC50 (as a rule, the concentration at which the toxic effect on the cells reaches its halfway point) in [1] is above 32 µg/mL. Further, the “Haemolysis (HC10)” value in the data set with human red blood cells is above 32 µg/mL. Further, in data set [2], the “% inhibition MRSA” value was 5.7%. Also, the inhibition at 32 µg/mL in data set [2] (setting [9]) stood at 11.3%; in [3] (setting [11]) it was 15.9%; in data set [4] it was 12.2%; in data set [7], 7.6%. Besides, the minimal inhibitory concentration (MIC) in [2] (setting [10]), in [3] (setting [12]), in [4] (setting [13]), in data set [5] (setting [14]), in data set [6] (setting [15]) and in [8] (setting [16]) was above 32 µg/mL each time. Further, the “% inhibition E. coli” value in data set [3] is listed as 8.5%. Also, in data set [4], the “% inhibition K. pneumoniae” value is given as 17.0%. In addition, in data set [5], the “% inhibition A. baumannii” value is 3.4% and 7.3%. The “% inhibition P. aeruginosa” value in data set [6] is 0.3% and 8.0%. Also, the “% inhibition C. neoformans” value in data set [7] was 7.8%.
For the molecule `COC1=C(Br)[C@H](O)[C@](O)(CC#N)C=C1Br` [Compound 1, (+)-aeroplysinin-1], in [1], the CC50 was above 32 µg/mL. The “Haemolysis (HC10)” value in the data set with human red blood cells was above 32 µg/mL. The “% inhibition MRSA” value in data set [2] is 96.7%. Moreover, the “MIC MRSA” value in data set [2] (ATCC 43300, MIC = concentration at which growth inhibited by ≥80%, range 0.25−32 µg/mL) was 32 µg/mL. Besides, the inhibition at 32 µg/mL in data set [2] (setting [9]) came to 95.9%; in data set [2] (read-out: mean value of % inhibition against MRSA, 32 µg/mL, mean of duplicates), 96.3%; in [3] (setting [11]), 93.7%; in data set [3] (ATCC25922, read-out: mean value of % inhibition against E. coli, 32 µg/mL, mean of duplicates), 94.5%; in [6] (Pseudomonas aeruginosa, ATCC27853, read-out: % inhibition P. aeruginosa, 32 µg/mL, duplicate (n = 2) values), 10.9%. Moreover, the MIC (usually the smallest concentration in the dilution series that meets the test's criterion for growth inhibition) in data set [2] (read-out: MIC MRSA, ATCC 43300, MIC = concentration at which growth inhibited by ≥80%, range 0.25−32 µg/mL) was below 32 µg/mL; in data set [3] (ATCC25922, read-out: MIC E. coli) it was 32 µg/mL; in data set [4] (ATCC700603, read-out: MIC K. pneumoniae) it was above 32 µg/mL; in data set [5] (Acinetobacter baumannii, ATCC19606, read-out: MIC A. baumannii) it was above 32 µg/mL; in [6] (Pseudomonas aeruginosa, ATCC27853, read-out: MIC P. aeruginosa), above 32 µg/mL; in [8] (ATCC208821, read-out: MIC C. neoformans), above 32 µg/mL. In [3], the “% inhibition E. coli” value is recorded as 95.2%. Besides, the “% inhibition K. pneumoniae” value in [4] was −2.8% and −3.3%. The “% inhibition P. aeruginosa” value in [6] is given as 18.2%. The “% inhibition C. neoformans” value in data set [7] was −6.6% and 0.0%.
Molecule `COC1=C(Br)[C@H](O)[C@@]2(C=C1Br)CC(C(=O)NCCCCCNC(=O)C1=NO[C@]3(C=C(Br)C(OC)=C(Br)[C@@H]3O)C1)=NO2` [Compound 3, homoaerothionin] yielded a CC50 in data set [1] above 32 µg/mL. In the data set on human red blood cells, the “Haemolysis (HC10)” value is above 32 µg/mL. Further, the MIC in [2] (setting [10]), in [3] (setting [12]), in [4] (setting [13]), in data set [5] (setting [14]), in data set [6] (setting [15]) and in data set [8] (setting [16]) was above 32 µg/mL throughout. The “% inhibition E. coli” value in data set [3] is −2.9% and −3.1%. Further, the “% inhibition K. pneumoniae” value in [4] is recorded as 6.6%. Further, the inhibition at 32 µg/mL in data set [4] was 10.2%; in data set [5] (Acinetobacter baumannii, ATCC19606, read-out: % inhibition A. baumannii, 32 µg/mL, duplicate (n = 2) values), 13.8%; in [7], 10.6%. Besides, in data set [5], the “% inhibition A. baumannii” value was determined as 9.8%. In addition, in [6], the “% inhibition P. aeruginosa” value is 10.4% and 2.2%. The “% inhibition C. neoformans” value in data set [7] was 16.1%.

The values above are taken from PMC9503778, “Targeted Isolation of Antibiotic Brominated Alkaloids from the Marine Sponge Pseudoceratina durissima Using Virtual Screening and Molecular Networking” (Marine Drugs, 2022).
